Results as given in US7122540B2, “2-Phenyl substituted imidazotriazinones as phosphodiesterase inhibitors” (Bayer HealthCare AG, priority 1997, dated 2006).

Assays:
PDE I = test: Inhibition of the phosphodiesterases in vitro: Ca2+-calmodulin-stimulated PDE I; type: biochemical, porcine or, preferably, bovine; details: concentration at which the reaction rate is reduced by 50%; CaCl2 and calmodulin added
Procedure: (§1) The cGMP-stimulated PDE II, the cGMP-inhibited PDE III and the cAMP-specific PDE IV were isolated either from porcine or bovine heart myocardium. The Ca^2+-calmodulin-stimulated PDE I was isolated from porcine aorta, porcine brain or, preferably, from bovine aorta. The cGMP-specific PDE V was obtained from porcine small intestine, porcine aorta, human platelets and, preferably, from bovine aorta. Purification was carried out by anion exchange chromatography over MonoQ® Pharmacia, essentially following the method of M. Hoey and Miles D. Houslay, Biochemical Pharmacology, Vol. 40, 193–202(1990) and C. Lugman et al., Biochemical Pharmacology, Vol. 35, 1743–1751(1986).
(§2) The enzyme activity is determined using a test mixture of 100 ml in 20 mM tris/HCI-buffer pH 7.5 containing 5 mM MgCl2, 0.1 mg/ml of bovine serum albumin and either 800Bq[^3H]cAMP or [^3H]cGMP. The final concentration of the nucleotides in question is 10^−6 mol/l. The reaction is initiated by addition of the enzyme and the amount of enzyme is such that during the incubation time of 30 min, approximately 50% of the substrate are converted. To test the cGMP-stimulated PDE II, [^3H]cAMP is used as substrate and 10^−6 mol/l of non-labelled cGMP are added to the mnixture. To test the Ca^2+-calmodulin-dependent PDE I, 1 mM of CaCl2 and […] are added to the reaction mixture. The reaction is quenched by addition of […] of acetonitrile containing 1 mM cAMP and 1 mM AMP. 100 ml of the reaction mixture are separated by HPLC, and the cleavage products are determined quantitatively on-line using a continuous scintillation counter. The substance concentration measured is the concentration at which the reaction rate is reduced by 50%. Additionally, the “phosphodiesterase [^3H] cAMP-SPA enzyme assay” and the “phosphodiesterase [^3H] cGMP-SPA enzyme assay” from Amersham Life Science were used for testing. The test was carried out according to the test protocol of the manufacturer. To determine the activity of PDE II, the [^3H]cAMP SPA assay was used, and 10^−6M cGMP were added to the reaction mixture to activate the enzyme. To measure PDE I, 10^−7M calmodulin and 1 mM CaCl2 were added to the reaction mixture. PDE V was measured using the [^3H]cGMP SPA assay.

PDE V = target: T1, PDE V (Bos taurus, UniProt Q28156); test: Inhibition of the phosphodiesterases in vitro: cGMP-specific PDE V; type: biochemical, porcine, human or, preferably, bovine; details: [3H]cGMP substrate; concentration at which the reaction rate is reduced by 50%
T1 construct: Purification was carried out by anion exchange chromatography over MonoQ; from tissue; host or cells: porcine small intestine, porcine aorta, human platelets or, preferably, bovine aorta
Procedure: The cGMP-stimulated PDE II, the cGMP-inhibited PDE III and the cAMP-specific PDE IV were isolated either from porcine or bovine heart myocardium. The Ca^2+-calmodulin-stimulated PDE I was isolated from porcine aorta, porcine brain or, preferably, from bovine aorta. The cGMP-specific PDE V was obtained from porcine small intestine, porcine aorta, human platelets and, preferably, from bovine aorta.
as §2

PDE II = target: T2, PDE II (Bos taurus, UniProt P14099); test: Inhibition of the phosphodiesterases in vitro: cGMP-stimulated PDE II; type: biochemical, porcine or bovine; details: [3H]cAMP substrate, 10^-6 mol/l cGMP added; concentration at which the reaction rate is reduced by 50%
T2 construct: isolated either from porcine or bovine heart myocardium; from tissue; host or cells: porcine or bovine heart myocardium
T2 sequence (P14099 1-921): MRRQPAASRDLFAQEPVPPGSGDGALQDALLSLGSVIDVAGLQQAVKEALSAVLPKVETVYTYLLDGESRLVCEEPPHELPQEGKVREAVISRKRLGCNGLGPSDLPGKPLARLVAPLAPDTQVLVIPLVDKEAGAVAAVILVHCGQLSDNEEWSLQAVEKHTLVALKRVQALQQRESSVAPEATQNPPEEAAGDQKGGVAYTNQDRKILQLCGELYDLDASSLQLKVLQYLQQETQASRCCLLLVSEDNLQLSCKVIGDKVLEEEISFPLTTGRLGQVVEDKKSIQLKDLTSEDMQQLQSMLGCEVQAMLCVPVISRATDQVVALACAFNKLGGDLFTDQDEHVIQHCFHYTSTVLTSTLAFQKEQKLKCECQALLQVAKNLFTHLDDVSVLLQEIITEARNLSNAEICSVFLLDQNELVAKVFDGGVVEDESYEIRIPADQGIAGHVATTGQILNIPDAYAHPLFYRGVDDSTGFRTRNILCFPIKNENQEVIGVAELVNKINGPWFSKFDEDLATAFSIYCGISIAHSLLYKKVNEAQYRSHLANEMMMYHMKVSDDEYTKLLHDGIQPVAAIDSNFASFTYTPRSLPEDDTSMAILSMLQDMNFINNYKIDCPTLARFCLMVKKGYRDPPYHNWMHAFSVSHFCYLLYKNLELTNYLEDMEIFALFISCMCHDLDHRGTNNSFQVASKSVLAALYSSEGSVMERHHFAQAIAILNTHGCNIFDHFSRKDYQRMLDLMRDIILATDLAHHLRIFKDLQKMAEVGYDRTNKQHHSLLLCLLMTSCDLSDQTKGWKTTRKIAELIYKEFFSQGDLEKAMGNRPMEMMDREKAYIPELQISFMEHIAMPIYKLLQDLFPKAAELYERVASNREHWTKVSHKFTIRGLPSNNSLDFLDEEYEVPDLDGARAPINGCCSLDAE
Procedure: as §1, §2

Row | Structure (SMILES) | IC50 (PDE I) | IC50 (PDE V) | IC50 (PDE II)
1 | CCCc1nc(C)c2c(=O)[nH]c(-c3cc(S(=O)(=O)N4CCN(C)CC4)ccc3OCC)nn12 [Example 16, 2-[2-Ethoxy-5-(4-methyl-piperazine-1-sulphonyl)-phenyl]-5-methyl-7-propyl-3H-imidazo[5,1-f][1,2,4]triazin-4-one] | 300 nM | 2 nM | > 1000 nM
2 | CCCc1nc(C)c2c(=O)[nH]c(-c3cc(S(=O)(=O)N4CCN(CCO)CC4)ccc3OCC)nn12 [Example 27, 2-{2-Ethoxy-5-[4-(2-hydroxy-ethyl)-piperazine-1-sulphonyl]-phenyl}-5-methyl-7-propyl-3H-imidazo[5,1-f][1,2,4]triazin-4-one] | 200 nM | 3 nM | > 1000 nM
3 | CCCc1nc(C)c2c(=O)[nH]c(-c3cc(S(=O)(=O)N(CCC)CCO)ccc3OCC)nn12 [Example 275] | 50 nM | 3 nM | > 1000 nM

The next lines start with the values.

Row | IC50 (PDE I) | IC50 (PDE V) | IC50 (PDE II) | Structure (SMILES)
4 | – | – | > 1000 nM | CCCc1nc(C)c2c(=O)[nH]c(-c3cc(S(=O)(=O)N4CCN(CC)CC4)ccc3OCC)nn12 [Example 19, 2-[2-Ethoxy-5-(4-ethyl-piperazine-1-sulphonyl)-phenyl]-5-methyl-7-propyl-3H-imidazo[5,1-f][1,2,4]triazin-4-one]
5 | 100 nM | 1 nM | > 1000 nM | CCCc1nc(C)c2c(=O)[nH]c(-c3cc(S(=O)(=O)N4CCC(O)CC4)ccc3OCC)nn12 [Example 26, 2-[2-Ethoxy-5-(4-hydroxy-piperidine-1-sulphonyl)-phenyl]-5-methyl-7-propyl-3H-imidazo[5,1-f][1,2,4]triazin-4-one]
6 | 100 nM | 4 nM | > 1000 nM | CCCc1nc(C)c2c(=O)[nH]c(-c3cc(S(=O)(=O)N(CC)CC)ccc3OCC)nn12 [Example 32, N,N-Diethyl-4-ethoxy-3-(5-methyl-4-oxo-7-propyl-3,4-dihydro-imidazo[5,1-f][1,2,4]triazin-2-yl)benzenesulphonamide]
7 | 300 nM | 10 nM | > 1000 nM | CCCc1nc(C)c2c(=O)[nH]c(-c3cc(S(=O)(=O)N4CCOCC4)ccc3OCC)nn12 [Example 260]
